From patent publication US20060111408A1, “Therapeutic benzothiazole compounds” (priority 2000, published 2006) come the findings set out here.

By Ki is commonly meant the equilibrium dissociation constant of an inhibitor or competing ligand from its target. One may read the EC50 as the concentration needed to bring the measured effect to its halfway point. In general, Emax refers to the greatest response seen or fitted, relative to the assay's reference.

One assay has as its target T1, human recombinant ERβ (Homo sapiens, UniProt Q92731).
T1 construct: purchased PanVera (Madison, Wis.)
The assay can be described thus: Fluorescence polarization estrogen receptor (ERFP) binding assay, ERβ. The conditions noted are these: for Ki: fluorescence polarization competition with Fluormone ES2, IC50 converted to Ki by Kenakin formula, read-out: FP β-ER Ki; for FP Selectivity: β-ER over α-ER, from FP Ki values. As for the experimental part: (§1) Abbreviated Procedure for Fluorescence Polarization Estrogen Receptor (ERFP) Binding Assay
(§2) A homogeneous mix-and-measure estrogen receptor (ER) binding assay which utilizes fluorescence polarization (FP) technology is used to identify compounds with affinity for the estrogen receptor. Purchased from PanVera (Madison, Wis.), assay reagents include purified human recombinant ERα, human recombinant ERβ, ES2 screening buffer (100 mM potassium phosphate, pH 7.4, 100 μg/mL bovine gamma globulin), and Fluormone™ ES2.
(§3) For competition binding experiments, dilutions of test compounds are prepared at 2× the final assay concentration in 0.2% DMSO in ES2 Screening buffer on TECAN Genosys, and 25 μL compound/well is dispensed into black Costar ½ volume 96-well plates. […] Plates are gently shaken for at least 5 minutes to mix and incubated for at least 1 hr 45 minutes to achieve equilibrium. (Reaction mixtures are stable for up to 5 hours).
(§4) Polarized fluorescence intensity values are collected and subsequently converted electronically to millipolarization (mp) values. Following data reduction and normalization with Excel and/or Prism software, % Ctrl values at the various test concentrations are used to obtain IC50 values via non-linear regression analysis of a four-parameter logistic equation.
(In general: Polarisation of emitted light reports the rotation of a fluorescent probe.)

A further assay has as its target T2, βER (Homo sapiens, UniProt Q92731).
T2 construct: expressed in transfected cells; host or cells: 293 cells (Human Embryonic Kidney, ATCC CRL-1573); the transfection step says 293T
Briefly: Cell-based assay for ER transcriptional activity (ERE β-gal reporter), βER-transfected 293 cells. The conditions noted are these: for EC50: 293 cells transfected with βER and ERE β-gal reporter; for Emax: HEK293, 293 cells transfected with βER, max controls 10 nM beta-estradiol; for ERE Selectivity: β-ER over α-ER, from ERE EC50 values. The procedure:
(§5) Cell-based Assay for ER Transcriptional Activity:
(§6) ERs are ligand-dependent transcription factors that bind the promoter regions of genes at a consensus DNA sequence called the estrogen responsive element (ERE). The ER agonist or antagonist activity of a drug was determined by measuring the amount of reporter enzyme activity expressed from a plasmid under the control of an estrogen-responsive element when cells transiently transfected with ER and the reporter plasmid were exposed to drug. These experiments were conducted according to the following methods.
(§7) Cells are grown in DMEM supplemented with 10% FBS, glutamine, sodium pyruvate and penicillin/streptomycin. Cells are grown to 80% confluency and split 1:10 or 1:20.
(§8) 2. The next day the media is changed, 1 hour prior to transfection, to fresh phenol red-free DMEM 10% FBS (charcoal stripped) and supplements.
(§9) 3. Transfections are performed using the Profection Kit from Promega #El 200, this kit is based on calcium phosphate mediated transfection. Reagents are added in sterile polystyrene tubes in the following order:
(§10) 6. The day after transfection, cells are washed 2× with PBS Ca Mg freePBS containing 1 mM EGTA pH=7.6. […] Trypsin is neutralized with 6 ml DMEM (no phenol red)+10% charcoal stripped FBS. Cells are pelleted at 1000×g for 5 min. Cell pellet is resuspended in 10 ml DMEM (no phenol red)+2% charcoal stripped FBS supplemented with glutamine and Penn/Strep and the cells are counted. Additional medium is added to dilute the cell density to 500,000 cells/ml.
(§11) 7. […] Plates are incubated for approx. 2-4 hours to allow cells to attach.
(§12) 8. Compounds are prepared at concentration of 4 mM in 100% DMSO, then diluted into medium with supplements but no serum. The first 2 dilutions are done in medium with no DMSO, then the remaining dilutions are in medium plus 0.5% DMSO to keep the vehicle constant. Max controls are 10 nM beta-estradiol and background controls are 0.5% DMSO. Compounds are normally tested in the range of 10 uM to 1 nM and are prepared at twice the concentration to be tested. The compounds are added to the cell plates, 50 ul per well. All compounds are tested with an n=4 wells for single poke and n=2 for 9-pt curves.
(§13) 9. Cells are incubated overnight at 37° C. with the compounds.
(§14) 1. After 18-24 hr of stimulation, 100 ul of 7% CPRG cocktail is added to each well, the plate is incubated at 37C for approximately 30 minutes to 2 hours or until the OD reaches between 1.0 and 2.0.
(§15) 2. The plates are read on a spectrophotometric plate reader (Spectramax, Molecular Devices) at 570 nm and raw absorbances are obtained.
(§16) Data is compiled and interpreted with Excel using XLFit or GraphPad Prism to fit concentration-response curves.

The target of another assay is T3, human recombinant ERα (Homo sapiens, UniProt P03372).
T3 construct: purchased PanVera (Madison, Wis.)
T3 sequence (P03372 1-595): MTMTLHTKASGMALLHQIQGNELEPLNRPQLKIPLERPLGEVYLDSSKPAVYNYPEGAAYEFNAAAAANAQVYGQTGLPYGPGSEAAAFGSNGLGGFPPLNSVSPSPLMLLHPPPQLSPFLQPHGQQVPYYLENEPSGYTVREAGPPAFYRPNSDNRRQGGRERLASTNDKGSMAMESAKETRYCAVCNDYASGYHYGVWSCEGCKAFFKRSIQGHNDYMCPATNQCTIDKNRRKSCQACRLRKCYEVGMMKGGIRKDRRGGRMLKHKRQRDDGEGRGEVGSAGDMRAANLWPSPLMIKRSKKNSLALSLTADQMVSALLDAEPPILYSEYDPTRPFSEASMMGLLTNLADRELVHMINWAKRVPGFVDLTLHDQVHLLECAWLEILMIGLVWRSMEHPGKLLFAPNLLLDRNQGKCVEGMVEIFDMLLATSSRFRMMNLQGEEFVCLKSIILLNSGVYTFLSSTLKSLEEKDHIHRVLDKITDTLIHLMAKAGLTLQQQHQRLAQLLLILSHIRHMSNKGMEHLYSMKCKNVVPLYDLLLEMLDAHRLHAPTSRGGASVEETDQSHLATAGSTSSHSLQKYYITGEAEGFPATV
Briefly: Fluorescence polarization estrogen receptor (ERFP) binding assay, ERα. To be noted: fluorescence polarization competition with Fluormone ES2; IC50 converted to Ki by Kenakin formula; read-out: FP α-ER Ki. As for the experimental part:
as §1, §2
as §3, with “hours). After centrifugation to remove air bubbles, plates are read on an LJL Analyst or Acquest equipped with Criterion software at the following settings: Fluorescence Polarization Mode; Static Polarizer on Excitation Side; Dynamic Polarizer on Emission Side; Excitation λ=485+/−10 nm; Emission λ=520+/−12.5 nm.” for “hours).”
as §4
Reference: Bolger et al., Rapid Screening of Environmental Chemicals for Estrogen Receptor Binding Capacity, Environmental Health Pespectives: 106 (1998), 1-7.

The target in the next assay is T4, αER (Homo sapiens, UniProt P03372).
T4 construct: expressed in transfected cells; host or cells: 293 cells (Human Embryonic Kidney, ATCC CRL-1573); the transfection step says 293T
T4 sequence (P03372 1-595): T3 sequence (P03372 1-595)
The assay can be described thus: Cell-based assay for ER transcriptional activity (ERE β-gal reporter), αER-transfected 293 cells. The conditions noted are these: for EC50: 293 cells transfected with αER and ERE β-gal reporter, read-out: ERE α-ER EC50; for ERE α-ER Max: 293 cells transfected with αER, max controls 10 nM beta-estradiol. As for the experimental part: as §5, §6, §7, §8, §9, §10, §11, §12, §13, §14, §15, §16

T1 sequence (Q92731 whole entry): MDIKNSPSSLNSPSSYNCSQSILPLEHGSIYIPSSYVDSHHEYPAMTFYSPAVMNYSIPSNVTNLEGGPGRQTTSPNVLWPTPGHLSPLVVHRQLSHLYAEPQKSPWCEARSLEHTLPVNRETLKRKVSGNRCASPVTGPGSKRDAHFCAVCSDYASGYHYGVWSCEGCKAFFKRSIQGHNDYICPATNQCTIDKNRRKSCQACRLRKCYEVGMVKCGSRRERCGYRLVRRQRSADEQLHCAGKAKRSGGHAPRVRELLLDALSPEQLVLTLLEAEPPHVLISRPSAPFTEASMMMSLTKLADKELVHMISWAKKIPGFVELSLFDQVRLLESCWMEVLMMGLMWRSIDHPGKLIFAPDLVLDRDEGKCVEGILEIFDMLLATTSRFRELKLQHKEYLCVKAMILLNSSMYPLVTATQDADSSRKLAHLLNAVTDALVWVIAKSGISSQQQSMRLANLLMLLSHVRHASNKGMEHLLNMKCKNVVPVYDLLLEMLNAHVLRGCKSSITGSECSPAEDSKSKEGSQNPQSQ
T2 sequence (Q92731 54-530 limits assumed): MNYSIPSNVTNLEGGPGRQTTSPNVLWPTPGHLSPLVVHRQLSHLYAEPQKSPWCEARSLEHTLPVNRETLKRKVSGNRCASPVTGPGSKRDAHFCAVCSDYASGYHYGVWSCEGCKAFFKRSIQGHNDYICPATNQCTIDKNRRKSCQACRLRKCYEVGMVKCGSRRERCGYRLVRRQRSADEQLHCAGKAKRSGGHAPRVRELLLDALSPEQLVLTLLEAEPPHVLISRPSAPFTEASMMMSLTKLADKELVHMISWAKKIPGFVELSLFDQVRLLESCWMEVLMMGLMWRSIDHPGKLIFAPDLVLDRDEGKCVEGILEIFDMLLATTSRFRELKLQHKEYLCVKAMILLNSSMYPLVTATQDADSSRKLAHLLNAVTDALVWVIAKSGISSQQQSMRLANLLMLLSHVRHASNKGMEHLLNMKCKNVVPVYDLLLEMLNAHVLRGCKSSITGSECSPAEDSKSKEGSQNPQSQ

`Oc1ccc(-c2nc3c(Cl)cc(O)cc3o2)cc1` [Example 1, 4-Chloro-6-hydroxy-2-(4-hydroxyphenyl)benzoxazole]: on human recombinant ERβ, the Ki was 0.0017 µM and the “FP Selectivity” value was 10. On βER, a half-maximal response (EC50) required 0.0012 µM, the Emax came out at 98% and the “ERE Selectivity” value was 52. At human recombinant ERα, the Ki is 0.018 µM. In addition, at αER, the 50% effective concentration (EC50) was 0.061 µM and the ERE α-ER Max came out at 103%.

In the case of `Cc1cc(O)cc2oc(-c3ccc(O)cc3)nc12` [Example 3, 6-Hydroxy-2-(4-hydroxyphenyl)-4-methylbenzoxazole], at human recombinant ERβ, the Ki was 0.0048 µM and the “FP Selectivity” value was determined as 25. Further, on βER, the EC50 amounted to 0.023 µM, the Emax stood at 89% and the “ERE Selectivity” value was 22. For the same compound, the Ki at human recombinant ERα was 0.121 µM. Moreover, at αER, the 50% effective concentration (EC50) turned out to be 0.497 µM and the ERE α-ER Max turned out to be 102%.

Turning to `Oc1ccc(-c2nc3c(O)cc(O)cc3o2)cc1` [Example 5, 4,6-Dihydroxy-2-(4-hydroxyphenyl)benzoxazole], on human recombinant ERβ, the inhibition constant (Ki) is 0.29 µM and the “FP Selectivity” value was 3. Besides, on βER, the Emax was found to be 98% and the “ERE Selectivity” value is 1.8. The Ki at human recombinant ERα turned out to be 1 µM. The ERE α-ER Max on αER was 102%.

Take `COc1ccc2oc(-c3ccc(O)cc3)nc2c1` [Example 8, 2-(4-hydroxyphenyl)-5-methoxybenzoxazole]: on human recombinant ERβ, the Ki was 0.148 µM and the “FP Selectivity” value is on record as 3. For the same compound, at human recombinant ERα, the Ki is 0.477 µM.

Take `Oc1cc(Br)c2oc(-c3ccc(O)c(Cl)c3)nc2c1` [Example 12, 7-Bromo-2-(3-chloro-4-hydroxy-phenyl)-benzooxazol-5-ol]: at human recombinant ERβ, the Ki came out at 0.0018 µM and the “FP Selectivity” value amounted to 30. Besides, at βER, the midpoint of the response, the EC50, lay at 0.0005 µM; the Emax was 81%; the “ERE Selectivity” value came out at 153. Further, the Ki at human recombinant ERα came to 0.054 µM. Further, on αER, the concentration giving a half-maximal response (EC50) amounted to 0.076 µM and the ERE α-ER Max turned out to be 37%.
